# Experimental data taken from patent EP0499662A1, “Compositions with enhanced penetration” (WARNER-LAMBERT COMPANY, priority 1991, dated 1992).
# Assay: in vitro permeation (diffusion) study across hairless mouse skin
smiles,measurement,setting,value
"C[C@]12CCC(=O)C=C1CC[C@@H]1[C@@H]2[C@@H](O)C[C@@]2(C)[C@H]1CC[C@]2(O)C(=O)CO [Hydrocortisone, hydrocortisone]",Avg. Flux,"formulation EtOH, saturated with the drug except for verapamil, average of the flux values at each sampling time within 24 hours",0.64 µg/cm^2/h
same,Avg. Flux,"formulation EtOH:Mig 20:80, saturated with the drug except for verapamil, average within 24 hours",10.24 µg/cm^2/h
same,Avg. Flux,"formulation Mig (Miglyol 840), saturated with the drug except for verapamil, average within 24 hours",1.49 µg/cm^2/h
